Assay results published in patent US20110237607A1, “SUBSTITUTED PURINYL-PYRAZOL DERIVATIVES AND THEIR USE AS POTASSIUM CHANNEL MODULATORS” (NEUROSEARCH A/S, priority 2008, published 2011).

Molecular target: T1, hSK3 channels (Homo sapiens, UniProt Q9UGI6)
T1 construct: expressed in transfected cells; host or cells: HEK293
Assay: Whole-cell patch-clamp recording of SK3 current in HEK293 cells expressing hSK3 channels
Type: cell-based
Description: The ionic current through small-conductance Ca^2+-activated K^+ channels (SK channels, subtype 3) is recorded using the whole-cell configuration of the patch-clamp technique in a classic patch-clamp set-up using HEK293 tissue culture cells expressing hSK3 channels as described in e.g. WO 2006/100212.
The SC100 value determined is defined as the Stimulating Concentration required for increasing the baseline current by 100%. The below SC100 values are an indication of the SK3 activating properties of the compounds of the invention.

Row | Structure (SMILES) | SC100 (Stimulating Concentration required for increasing the baseline current by 100%) [µM]
1 | Cc1cc(C)n(-c2nc(NC3Cc4ccccc4C3)c3ncn(C)c3n2)n1 [Compound 5.1, [2-(3,5-Dimethyl-pyrazol-1-yl)-9-methyl-9H-purin-6-yl]-indan-2-yl-amine] | 0.04
2 | Cc1ccn(-c2nc(NC3Cc4ccccc4C3)c3ncn(C)c3n2)n1 [Compound 5.2, Indan-2-yl-[9-methyl-2-(3-methyl-pyrazol-1-yl)-9H-purin-6-yl]-amine] | 0.10
